Tests used:
Assay type in all cases: in vivo
[1] = test system: redroot pigweed (Amaranthus retroflexus, AMARE); assay: Pre-emerge test, greenhouse herbicide activity screening; conditions: rating scale 0-100, 14 days after application
Procedure, shortened: (§1)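 Visual ratings on a 0-100 scale (0 no damage, 100 all plants dead) were taken at 14 days after treatment. Rates of 15-1000 g ai/ha in acetone, 187 l/ha, were sprayed onto soil one day after planting (pre-emerge) or onto 2-3 leaf plants with 0.25% v/v surfactant (post-emerge).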

[2] = test system: barnyardgrass (Echinochloa crus-galli, ECHCG); assay: as above; conditions: rating scale 0-100, 14 days after application
Procedure, shortened: as §1

[3] = test system: green foxtail (Setaria viridis, SETVI); assay: as above; conditions: rating scale 0-100, 14 days after application
Procedure, shortened: as §1

[4] = test system: ivyleaf morningglory (Ipomoea hederacea, IPOHE); assay: as above; conditions: rating scale 0-100, 14 days after application
Procedure, shortened: as §1

[5] = test system: johnsongrass (Sorghum halepense, SORHA); assay: as above; conditions: rating scale 0-100, 14 days after application
Procedure, shortened: as §1

[6] = test system: lambsquarters (Chenopodium album, CHEAL); assay: as above; conditions: rating scale 0-100, 14 days after application
Procedure, shortened: as §1

[7] = test system: large crabgrass (Digitaria sanguinalis, DIGSA); assay: as above; conditions: rating scale 0-100, 14 days after application
Procedure, shortened: as §1

[8] = test system: sicklepod (Cassia obtusifolia, CASOB); assay: as above; conditions: rating scale 0-100, 14 days after application
Procedure, shortened: as §1

[9] = test system: velvetleaf (Abutilon theophrasti, ABUTH); assay: as above; conditions: rating scale 0-100, 14 days after application
Procedure, shortened: as §1

[10] = test system: field corn (Zea mays L., var. Dekalb 535, CORN); assay: Pre-emerge test, crop safety; conditions: rating scale 0-100, 14 days after application
Procedure, shortened: (§2)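 Rating: 0–100 visual injury, 14 DAA. Application: acetone, 187 l/ha, 15–1000 g ai/ha, flat-fan track sprayer with nozzle 40–45 cm above soil or canopy. Post-emerge runs used 0.25% v/v surfactant on 2–3 leaf plants.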

[11] = test system: upland rice (Oryza sp., var. Tebonnet, RICE); assay: Pre-emerge test, crop safety; conditions: rating scale 0-100, 14 days after application
Procedure, shortened: as §2

[12] = test system: barnyardgrass (Echinochloa crus-galli, ECHCG); assay: Post-emerge test, greenhouse herbicide activity screening; conditions: rating scale 0-100 (0 no damage, 100 complete death), 14 days after application
Procedure, shortened: (§3)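 Compounds in acetone were track-sprayed at 15-1000 g ai/ha (187 l/ha) on sandy loam pots: pre-emerge one day after seeding, post-emerge at 2-3 leaf stage with 0.25% v/v non-ionic surfactant. Phytotoxicity was rated 14 days later on a 0 (no damage) to 100 (complete death) scale.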

[13] = test system: common ragweed (Ambrosia artemisizfolia L., AMBEL); assay: as above; conditions: rating scale 0-100 (0 no damage, 100 complete death), 14 days after application
Procedure, shortened: as §3

[14] = test system: green foxtail (Setaria viridis, SETVI); assay: as above; conditions: rating scale 0-100 (0 no damage, 100 complete death), 14 days after application
Procedure, shortened: as §3

[15] = test system: ivyleaf morningglory (Ipomoea hederacea, IPOHE); assay: as above; conditions: rating scale 0-100 (0 no damage, 100 complete death), 14 days after application
Procedure, shortened: as §3

[16] = test system: johnsongrass (Sorghum halepense, SORHA); assay: as above; conditions: rating scale 0-100 (0 no damage, 100 complete death), 14 days after application
Procedure, shortened: as §3

[17] = test system: lambsquarters (Chenopodium album, CHEAL); assay: as above; conditions: rating scale 0-100 (0 no damage, 100 complete death), 14 days after application
Procedure, shortened: as §3

[18] = test system: large crabgrass (Digitaria sanguinalis, DIGSA); assay: as above; conditions: rating scale 0-100 (0 no damage, 100 complete death), 14 days after application
Procedure, shortened: as §3

[19] = test system: redroot pigweed (Amaranthus retroflexus, AMARE); assay: as above; conditions: rating scale 0-100 (0 no damage, 100 complete death), 14 days after application
Procedure, shortened: as §3

[20] = test system: sicklepod (Cassia obtusifolia, CASOB); assay: as above; conditions: rating scale 0-100 (0 no damage, 100 complete death), 14 days after application
Procedure, shortened: as §3

[21] = test system: velvetleaf (Abutilon theophrasti, ABUTH); assay: as above; conditions: rating scale 0-100 (0 no damage, 100 complete death), 14 days after application
Procedure, shortened: as §3

[22] = test system: field corn (Zea mays L., var. Dekalb 535, CORN); assay: Post-emerge test, crop safety; conditions: rating scale 0-100 (0 no damage, 100 complete death), 14 days after application
Procedure, shortened: as §1

[23] = test system: upland rice (Oryza sp., var. Tebonnet, RICE); assay: Post-emerge test, crop safety; conditions: rating scale 0-100 (0 no damage, 100 complete death), 14 days after application
Procedure, shortened: as §1

SMILES: COCCOC(=O)C(C)(Cl)Cc1c(OC)c(Cl)cc(F)c1-n1c(=O)cc(C(F)(F)F)n(C)c1=O (stereo not shown) [14-47]
- Pre-emerge herbicidal activity, phytotoxicity rating AMARE ([1]; 63 g ai/ha): 100
- Pre-emerge herbicidal activity, phytotoxicity rating AMARE ([1]; 250 g ai/ha): 100
- Pre-emerge herbicidal activity, phytotoxicity rating ECHCG ([2]; 63 g ai/ha): 0
- Pre-emerge herbicidal activity, phytotoxicity rating ECHCG ([2]; 250 g ai/ha): 95
- Pre-emerge herbicidal activity, phytotoxicity rating SETVI ([3]; 63 g ai/ha): 0
- Pre-emerge herbicidal activity, phytotoxicity rating SETVI ([3]; 250 g ai/ha): 99
- Pre-emerge herbicidal activity, phytotoxicity rating IPOHE ([4]; 63 g ai/ha): 0
- Pre-emerge herbicidal activity, phytotoxicity rating IPOHE ([4]; 250 g ai/ha): 0
- Pre-emerge herbicidal activity, phytotoxicity rating SORHA ([5]; 63 g ai/ha): 0
- Pre-emerge herbicidal activity, phytotoxicity rating SORHA ([5]; 250 g ai/ha): 20
- Pre-emerge herbicidal activity, phytotoxicity rating CHEAL ([6]; 63 g ai/ha): 100
- Pre-emerge herbicidal activity, phytotoxicity rating CHEAL ([6]; 250 g ai/ha): 100
- Pre-emerge herbicidal activity, phytotoxicity rating DIGSA ([7]; 63 g ai/ha): 30
- Pre-emerge herbicidal activity, phytotoxicity rating DIGSA ([7]; 250 g ai/ha): 100
- Pre-emerge herbicidal activity, phytotoxicity rating CASOB ([8]; 63 g ai/ha): 0
- Pre-emerge herbicidal activity, phytotoxicity rating CASOB ([8]; 250 g ai/ha): 0
- Pre-emerge herbicidal activity, phytotoxicity rating ABUTH ([9]; 63 g ai/ha): 100
- Pre-emerge herbicidal activity, phytotoxicity rating ABUTH ([9]; 250 g ai/ha): 100
- Pre-emerge phytotoxicity rating, crop damage CORN ([10]; 63 g ai/ha): 0
- Pre-emerge phytotoxicity rating, crop damage CORN ([10]; 250 g ai/ha): 0
- Pre-emerge phytotoxicity rating, crop damage RICE ([11]; 63 g ai/ha): 0
- Pre-emerge phytotoxicity rating, crop damage RICE ([11]; 250 g ai/ha): 70
- Post-emerge Herbicidal Activity, phytotoxicity rating ECHCG ([12]; Rate 63 g ai/ha): 100
- Post-emerge Herbicidal Activity, phytotoxicity rating ECHCG ([12]; Rate 250 g ai/ha): 100
- Post-emerge Herbicidal Activity, phytotoxicity rating AMBEL ([13]; Rate 63 g ai/ha): 100
- Post-emerge Herbicidal Activity, phytotoxicity rating AMBEL ([13]; Rate 250 g ai/ha): 100
- Post-emerge Herbicidal Activity, phytotoxicity rating SETVI ([14]; Rate 63 g ai/ha): 90
- Post-emerge Herbicidal Activity, phytotoxicity rating SETVI ([14]; Rate 250 g ai/ha): 100
- Post-emerge Herbicidal Activity, phytotoxicity rating IPOHE ([15]; Rate 63 g ai/ha): 80
- Post-emerge Herbicidal Activity, phytotoxicity rating IPOHE ([15]; Rate 250 g ai/ha): 100
- Post-emerge Herbicidal Activity, phytotoxicity rating SORHA ([16]; Rate 63 g ai/ha): 70
- Post-emerge Herbicidal Activity, phytotoxicity rating SORHA ([16]; Rate 250 g ai/ha): 80
- Post-emerge Herbicidal Activity, phytotoxicity rating CHEAL ([17]; Rate 63 g ai/ha): 100
- Post-emerge Herbicidal Activity, phytotoxicity rating CHEAL ([17]; Rate 250 g ai/ha): 100
- Post-emerge Herbicidal Activity, phytotoxicity rating DIGSA ([18]; Rate 63 g ai/ha): 95
- Post-emerge Herbicidal Activity, phytotoxicity rating DIGSA ([18]; Rate 250 g ai/ha): 100
- Post-emerge Herbicidal Activity, phytotoxicity rating AMARE ([19]; Rate 63 g ai/ha): 100
- Post-emerge Herbicidal Activity, phytotoxicity rating AMARE ([19]; Rate 250 g ai/ha): 100
- Post-emerge Herbicidal Activity, phytotoxicity rating CASOB ([20]; Rate 63 g ai/ha): 0
- Post-emerge Herbicidal Activity, phytotoxicity rating CASOB ([20]; Rate 250 g ai/ha): 70
- Post-emerge Herbicidal Activity, phytotoxicity rating ABUTH ([21]; Rate 63 g ai/ha): 100
- Post-emerge Herbicidal Activity, phytotoxicity rating ABUTH ([21]; Rate 250 g ai/ha): 100
- Post-emerge phytotoxicity rating CORN (crop damage) ([22]; Rate 63 g ai/ha): 40
- Post-emerge phytotoxicity rating CORN (crop damage) ([22]; Rate 250 g ai/ha): 100
- Post-emerge phytotoxicity rating RICE (crop damage) ([23]; Rate 63 g ai/ha): 100
- Post-emerge phytotoxicity rating RICE (crop damage) ([23]; Rate 250 g ai/ha): 100

— patent US6355799B1, “Substituted benzene compounds, process for their preparation, and herbicidal and defoliant compositions containing them” (ISK Americas Incorporated, priority 1997, dated 2002)
